Experimental data as given in US6924288B2, “Enantiomerically pure opioid diarylmethylpiperzine and methods of using same” (priority 2001, dated 2005).

Legend:
[1] = molecular target: T1, μ opioid receptor (Rattus norvegicus, UniProt P33535); assay: Radioligand binding, [3H]DAMGO competition, rat brain membranes
T1 construct: tissue Pel-Freeze Biological Inc. (Rogers, Ark.); host or cells: rat whole brain membranes
Protocol: (§1) Two stereoisomerically related racemic mixtures and inclusive enantiomers were evaluated for in vitro opioid receptor affinity in rat brain membranes (μ and δ opioid) and guinea pig cerebellum (κ opioid receptor). Membranes for radioligand binding were prepared from either rat whole brain or guinea pig cerebellum, supplied by Pel-Freeze Biological Inc. (Rogers, Ark.). Tissues were homogenized in 50 mM TRIS (Tris[hydrooxymethyl]aminomethane) buffer (pH 7.4) containing 50 ug/ml soybean trypsin inhibitor, 1 mM EDTA (Ethylenediaminetetraacetic acid), and 100 μM PMSF (Phenylmethylsulfonyl fluoride). The homogenized brain tissues were centrifuged at 500×g for 30 minutes (4° C.) to remove large debris. The supernatant was polytronically sonicated for 10 seconds (P.E. setting of 2, 4° C.). Sucrose solution was then added to a final concentration of 0.35 M using a 10 mM TRIS-Sucrose buffer (pH 7.4) and the brain membranes were then centrifuged at 40,000×g for 30 minutes (4° C.). The membrane pellets were then washed twice in 10 mM TRIS buffer (pH 7.4) containing 50 μg/ml soybean trypsin inhibitor, 1 mM EDTA, and 100 μM PMSF.
(§2) Radioligand binding assays were performed in 10 mM TRIS buffer (pH 7.4) containing 50 μg/ml soybean trypsin inhibitor, 1 mM EDTA, 5 mM MgCl2, and 100 μM PMSF. Tritium-labeled DAMGO (μ), Deltorphin II (δ), or U69593 (κ) purchased from New England Nuclear were used as ligands in competitive experiments (2-3×10^−10 M final concentrations) with non-specific binding defined by 0.5×10^−6 M Naloxone (purchased from SIGMA Chemical Co.). All binding assays were run at room temperature for 90 minutes and then terminated by rapid filtration on GF/C glass fiber filters (Whatman, Hillsboro, Oreg.) with 50 mM TRIS buffer (4° C., pH 7.4) employing a Brandel Semi-automatic Cell Harvester (Model M48, Brandel, Gaithersburg, Md.). The filters were washed twice with 50 mM TRIS buffer (4° C., pH 7.4) and the filters were placed in liquid scintillation cocktail and the bound radioactivity counted on a Beckman LS 6500 scintillation counter. The potency of the compounds in inhibiting the binding of radiolabelled DAMGO (μ), Deltorphin II (δ), or U69593 (κ) was determined from full concentration-effect curves. With the computer program Prism (GraphPad Software Inc., San Diego, Calif.) the IC50 values were determined using a one-site nonlinear regression analysis of the radioligand binding data. The IC50 values were then converted to Ki values using the Cheng-Prusoff equation. (Cheng Y and Prusoff W H (1973) Relationship between the inhibition constant (K1) and the concentration of inhibitor which causes 50 percent inhibition (I50) of a enzymatic reaction. Biochem Pharm 22:3099-3108.)

[2] = molecular target: T2, δ opioid receptor (Rattus norvegicus, UniProt P33533); assay: Radioligand binding, [3H]Deltorphin II competition, rat brain membranes; settings: read-out: Rat Brain Membrane K1 (nM) δ
T2 construct: tissue Pel-Freeze Biological Inc. (Rogers, Ark.); host or cells: rat whole brain membranes
T2 sequence (P33533 whole entry): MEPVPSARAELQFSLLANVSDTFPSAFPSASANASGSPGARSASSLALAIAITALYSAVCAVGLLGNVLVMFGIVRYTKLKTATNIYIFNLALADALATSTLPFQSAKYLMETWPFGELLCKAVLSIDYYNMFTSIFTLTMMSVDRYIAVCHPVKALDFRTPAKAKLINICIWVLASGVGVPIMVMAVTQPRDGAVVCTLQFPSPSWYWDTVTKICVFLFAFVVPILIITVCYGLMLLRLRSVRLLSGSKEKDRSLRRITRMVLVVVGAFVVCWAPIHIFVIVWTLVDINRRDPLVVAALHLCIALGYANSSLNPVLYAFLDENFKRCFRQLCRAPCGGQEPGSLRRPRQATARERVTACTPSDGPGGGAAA
Protocol: as §1, §2

[3] = molecular target: T3, Delta receptor, mouse vas deferens (Mus musculus, UniProt P32300); assay: Mouse vas deferens, inhibition of electrically induced contractions, delta; assay type: cell-based; settings: read-out: Mouse Vas Deferens ED50 (nM) δ
T3 construct: Mouse vasa deferentia (MVD), CD-1 strain, Harlan, Raleigh, N.C.) were removed from mice; tissue Harlan, Raleigh, N.C; (animals); host or cells: mouse vas deferens, CD-1 strain
T3 sequence (P32300 whole entry): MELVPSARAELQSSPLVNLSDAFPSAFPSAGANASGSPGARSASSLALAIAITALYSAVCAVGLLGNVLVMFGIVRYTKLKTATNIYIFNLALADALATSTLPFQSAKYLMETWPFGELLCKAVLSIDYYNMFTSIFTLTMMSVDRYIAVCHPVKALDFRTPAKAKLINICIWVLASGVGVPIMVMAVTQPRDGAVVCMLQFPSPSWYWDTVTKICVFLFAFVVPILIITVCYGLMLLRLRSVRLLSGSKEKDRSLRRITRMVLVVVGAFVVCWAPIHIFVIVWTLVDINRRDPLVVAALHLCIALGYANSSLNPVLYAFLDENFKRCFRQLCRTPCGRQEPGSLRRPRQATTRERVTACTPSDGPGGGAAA
Protocol: The compound of formula (I) and compounds 1, 3, 4, 5 and 6 as identified above, were evaluated for in vitro opioid receptor activity in various receptor systems, including mouse vas deferens (Mouse Vas Deferens ED50), and guinea pig ileum (Guinea Pig Ileum ED50). The assay procedures used for such determinations of receptor activity are set out below.
In vitro bioassays: Mouse vasa deferentia (MVD), CD-1 strain, Harlan, Raleigh, N.C.) were removed from mice and suspended between platinum electrodes with 0.5 g of tension in organ bath chambers containing a modified Mg^++ free Krebs buffer of the following composition (millimolar): NaCl, 117.5; KCl, 4.75; CaCl2, 2.6; KH2PO4, 1.20; NaHCO3, 24.5; and glucose, 11. The buffer was saturated with 95% O2/5% CO2 and kept at 37° C. Tissues were stimulated at supramaximal voltage with 10-Hz pulse trains for 400-msec.; train interval 10 seconds; and 1.0 msec pulse duration at maximal voltage. Delta receptor activity was determined by adding appropriate concentrations of test compound to organ baths and allowing a maximal response before addition of the next higher concentration.
The ED50 values were extrapolated from curves showing the dose concentration plotted against the response (J. A. H. Lord, A. A. Waterfield, J. Hughes, H. W. Kosterlitz, Nature 267, 495, (1977)).

[4] = test system: rats; assay: Tail pinch test for analgesia in rats; assay type: in vivo; settings: rat; for Analgesia (delay of response to tail pinch): 0.30 mg/kg i.v., cutoff 20 sec
Protocol: Analgesia was assayed in rats using the tail pinch test with simultaneous monitoring of capillary blood gases (pCO2). During this testing period respiratory depression values were also obtained. Male rats (Wistar Hannover 200-300 g) were anesthetized with 2% isoflurane (J. A. Webster, Inc., Sterling, Mass. The femoral artery was cannulated with PE50 tubing for blood sampling. The external jugular vein was also cannulated with Silastic tubing for drug injection. After surgery, anesthetic gases were removed and the rat was allowed to rest in a plastic restrainer for 60 minutes to establish baseline values of blood gases.
The compounds 1-6 were administered intravenous. Nociceptive response and respiratory values were obtained for a 1-2 hour period. The femoral artery cannulation was used to draw arterial blood into a syringe pre-wetted with heparin. Samples were then analyzed with a blood gas analyzer (Ph/Gas Analyzer Synthesis 25 Model, Instrumentation Laboratory) to assess respiratory depression effects. The volume of blood taken each time was 0.15 cc. The syringes were capped immediately and the blood gases analyzed within 5 minutes. The blood exposed to air at the tip of the syringe was expelled. The blood was mixed by gentle inversion and an aliquots of 0.10 cc was injected into the blood gas analyzer.
An artery clamp was placed on the tail (one inch from the tip of the tail) for a short duration until an escape response occurred (i.e. tail-flick or vocalization). The escape response latency was recorded by means of a stopwatch. A cutoff time of 20 sec. was used to prevent unnecessary tissue damage. […] The elapsed time to elicit a pain response was recorded as the tail pinch latency in seconds. Blood gases were monitored at approximately the same time points as the tail pinch test.
The ED50 values for analgesia potency and respiratory depression were determined to calculate the safety or therapeutic ratio, which is defined as the respiratory depression ED50 divided by analgesia ED50.

T1 sequence (P33535 whole entry): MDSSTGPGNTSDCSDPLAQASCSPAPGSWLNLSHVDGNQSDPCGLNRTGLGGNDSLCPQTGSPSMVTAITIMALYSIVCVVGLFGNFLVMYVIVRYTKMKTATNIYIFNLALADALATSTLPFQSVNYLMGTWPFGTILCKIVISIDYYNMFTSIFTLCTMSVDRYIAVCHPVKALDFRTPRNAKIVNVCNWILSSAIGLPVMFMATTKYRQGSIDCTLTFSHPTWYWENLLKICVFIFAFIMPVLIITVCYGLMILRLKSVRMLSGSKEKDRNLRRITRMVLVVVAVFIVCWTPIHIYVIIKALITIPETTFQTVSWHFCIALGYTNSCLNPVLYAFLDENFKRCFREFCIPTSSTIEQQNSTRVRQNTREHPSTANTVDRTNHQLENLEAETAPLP

## C=CCN1C[C@H](C)N([C@H](c2ccsc2)c2cccc(O)c2)C[C@H]1C [Compound 2, (−)3-((S)-((2S,5R)-4-allyl-2,5-dimethyl-1-piperazinyl)(3-thienyl)methyl)phenol]
[1]; mu and delta receptor binding
  K1 relative to the K1 of its enantiomer DPI-165: approximately 1/1000
[1]; rat brain membranes, [3H]DAMGO, read-out: Rat Brain Membrane K1 (nM) μ
  Ki: 0.4 nM
[2]
  Ki: 0.88 nM
[3]
  EC50: 14.2 nM
[4]; 4 min.
  Analgesia (delay of response to tail pinch): 20 s
[4]; 8 min.
  Analgesia (delay of response to tail pinch): 20 s
[4]; 32 min.
  Analgesia (delay of response to tail pinch): 12.3 s
[4]; i.v., tail pinch, FIGS. 1-6
  Analgesic effect in words: safely maintains analgesia for an extended time
[4]; intravenous, tail pinch, 20 sec cutoff
  ED50: 0.046 mg/kg
